Several values for one entry are separate records, joined by “and”; a condition that tells them apart may be missing. Equal values may be shown once. Read-outs that look alike come from different tables or passages of the source.
Biological target: RIPK1 (Homo sapiens (Human), UniProt Q13546)
Experiment: ADP-Glo kinase assay (RIPK1 activity, conversion of ATP to ADP)
Assay type: biochemical
Conditions: 5 nM RIPK1, 50 μM ATP, 6 h reaction, read-out: RIPK1 Enzyme Avg IC50
Method: In order to measure RIPK1 activity the ADP-Glo kinase assay (Promega, Catalog #V7002) was used to measure the conversion of ATP to ADP. This enzymatic assay was performed in a 384-well white, Optiplate (Perkin Elmer, Catalog #6007299) with assay buffer consisting of 50 mM HEPES pH 7.5 (Gibco, Catalog #15630-080), 50 mM NaCl (Teknova, Catalog #S0252), 30 mM MgCl2 (Ambion, Catalog #AM9530G), 1 mM DTT (Santa Cruz Biotechnology, Catalog #sc-29089), 0.05% BSA (Sigma, Catalog #A3059-50G) and 0.02% CHAPS (Sigma, Catalog #C5070-5G). Stock solutions of the test compounds were prepared in 100% DMSO (Sigma, Catalog #D2650) and serially diluted 1:3 using 100% DMSO. Compounds were additionally diluted 1:40 in assay buffer, and 2 μL/well were transferred to the assay plate. 4 μL/well (final concentration of 5 nM) of RIPK1 protein (SignalChem, Catalog #R07-1IG-05) diluted in assay buffer and added to the assay plate followed by a 10 minute preincutation at rt. 4 μL/well of ATP (Promega, Catalog #V7002) (final concentration of 50 μM) diluted in assay buffer were then added to the assay plate followed by a 6 h reaction time. Final concentrations of RIPK1 and ATP refer to a 10 μL volume. Luminescence was measured using a BioTek Synergy™ NEO plate reader. IC50 values were calculated using a four-parameter logistic curve fit using Genedata Screener software.

Sequence of RIPK1 (Q13546 1-327): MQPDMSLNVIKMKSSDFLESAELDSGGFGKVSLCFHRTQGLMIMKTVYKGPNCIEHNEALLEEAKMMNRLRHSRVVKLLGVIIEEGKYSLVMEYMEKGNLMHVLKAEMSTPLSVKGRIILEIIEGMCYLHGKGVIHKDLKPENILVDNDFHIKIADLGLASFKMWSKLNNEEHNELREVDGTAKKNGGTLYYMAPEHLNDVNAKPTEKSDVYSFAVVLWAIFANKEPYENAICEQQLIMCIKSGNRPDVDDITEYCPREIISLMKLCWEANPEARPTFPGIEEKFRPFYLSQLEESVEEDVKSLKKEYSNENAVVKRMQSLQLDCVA

| Compound | IC50 | IC50 (footnote symbol (a)) [nM] |
| --- | --- | --- |
| O=C(N1N=CCC1c1cc(F)cc(F)c1)C12CC(Cn3nc4ccccc4n3)(C1)C2 (centres unmarked) [Example 86, (3-((2H-benzo[d][1,2,3]-triazol-2-yl)methyl)bicyclo-[1.1.1]pentan-1-yl)(5-(3,5-difluorophenyl)-4,5-dihydro-1H-pyrazol-1-yl)methanone] | 19 nM |  |
| C[C@H](NC(=O)C12CC(CO)(C1)C2)c1cc(F)cc(F)c1 [Example 90, (S)-N-(1-(3,5-difluoro-phenyl)ethyl)-3-(hydroxymethyl)-bicyclo[1.1.1]pentane-1-carboxamide] |  | > 50000 |
| O=C(NCc1cc(F)cc(F)c1)C12CC(CO)(C1)C2 [Example 91, N-(3,5-difluorobenzyl)-3-(hydroxymethyl)bicyclo-[1.1.1]pentane-1-carboxamide] |  | > 50000 |
| NC(=O)c1ccnc(OCC23CC(C(=O)N4CC(F)CC4c4cccc(F)c4)(C2)C3)n1 (centres unmarked) [Example 95, 2-((3-(4-fluoro-2-(3-fluoro-phenyl)pyrrolidine-1-carbonyl)bicyclo[1.1.1]-pentan-1-yl)methoxy)-pyrimidine-4-carboxamide] | 151 nM |  |
| N#Cc1cncc(OCC23CC(C(=O)N4CC(F)CC4c4cccc(F)c4)(C2)C3)n1 (centres unmarked) [Example 96, 6-((3-(4-fluoro-2-(3-fluoro-phenyl)pyrrolidine-1-carbonyl)bicyclo[1.1.1]-pentan-1-yl)methoxy)-pyrazine-2-carbonitrile] | 162 nM |  |
| O=C(N1CC(F)CC1c1cccc(F)c1)C12CC(COc3ncc(F)cn3)(C1)C2 (centres unmarked) [Example 97, (4-fluoro-2-(3-fluorophenyl)-pyrrolidin-1-yl)(3-(((5-fluoropyrimidin-2-yl)oxy)-methyl)bicyclo[1.1.1]pentan-1-yl)methanone] | 219 nM |  |
| NC(=O)c1cc(OCC23CC(C(=O)N4CC(F)CC4c4cccc(F)c4)(C2)C3)ncn1 (centres unmarked) [Example 98, 6-((3-(4-fluoro-2-(3-fluorophenyl)pyrrolidine-1-carbonyl)bicyclo[1.1.1]-pentan-1-yl)methoxy)-pyrimidine-4-carboxamide] | 240 nM |  |
| N#Cc1cc(OCC23CC(C(=O)N4CC(F)CC4c4cccc(F)c4)(C2)C3)ccn1 (centres unmarked) [Example 99, 4-((3-(4-fluoro-2-(3-fluorophenyl)pyrrolidine-1-carbonyl)bicyclo[1.1.1]-pentan-1-yl)methoxy)-picolinonitrile] | 280 nM |  |
| N#Cc1cnc(OCC23CC(C(=O)N4CC(F)CC4c4cccc(F)c4)(C2)C3)nc1 (centres unmarked) [Example 100, 2-((3-(4-fluoro-2-(3-fluorophenyl)pyrrolidine-1-carbonyl)bicyclo[1.1.1]-pentan-1-yl)methoxy)-pyrimidine-5-carbonitrile] | 284 nM |  |
| C[C@H](NC(=O)C12CC(COc3cc(C#N)ncn3)(C1)C2)c1cc(F)cc(F)c1 [Example 102, (S)-3-(((6-cyanopyrimidin-4-yl)oxy)methyl)-N-(1-(3,5-difluorophenyl)ethyl)-bicyclo[1.1.1]pentane-1-carboxamide] | 2000 nM |  |
| O=C(N1CC(F)CC1c1cccc(F)c1)C12CC(COc3cccc4nncn34)(C1)C2 (centres unmarked) [Example 103, (3-(([1,2,4]triazolo[4,3-a]-pyridin-5-yloxy)methyl)-bicyclo[1.1.1]pentan-1-yl)(4-fluoro-2-(3-fluorophenyl)-pyrrolidin-1-yl)methanone] | 2660 nM |  |
| N#Cc1cc(OCC23CC(C(=O)NCc4cc(F)cc(F)c4)(C2)C3)ncn1 [Example 104, 3-(((6-cyanopyrimidin-4-yl)oxy)methyl)-N-(3,5-difluorobenzyl)bicyclo-[1.1.1]pentane-1-carboxamide] | 3050 nM |  |
| Cc1cccc(C2CCCN2C(=O)C23CC(Nc4nccc(C#N)n4)(C2)C3)c1 (centres unmarked) [Example 105, 2-((3-(2-(m-tolyl)pyrrolidine-1-carbonyl)bicyclo[1.1.1]-pentan-1-yl)amino)-pyrimidine-4-carbonitrile] |  | > 50000 |
| N#Cc1cccc(OCC23CC(C(=O)N4CC(F)CC4c4cccc(F)c4)(C2)C3)c1 (centres unmarked) [Example 107, 3-((3-(4-fluoro-2-(3-fluoro-phenyl)pyrrolidine-1-carbonyl)bicyclo[1.1.1]-pentan-1-yl)methoxy)-benzonitrile] | 183 nM |  |
| Cc1cccc(OCC23CC(C(=O)N4CC(F)CC4c4cccc(F)c4)(C2)C3)c1 (centres unmarked) [Example 108, (4-fluoro-2-(3-fluorophenyl)-pyrrolidin-1-yl)(3-((m-tolyloxy)methyl)bicyclo-[1.1.1]pentan-1-yl)methanone] | 206 nM |  |
| Cc1cccc(C2CCCN2C(=O)C23CC(C2)C3)c1 (centres unmarked) [Example 113, bicyclo[1.1.1]pentan-1-yl(2-(m-tolyl)pyrrolidin-1-yl)methanone] | 4230 nM |  |

| Compound | IC50 | IC50 (footnote symbol (a)) [nM] |
| --- | --- | --- |
| O=C(N1CCC(Oc2ccccc2)C1)C12CC(F)(C1)C2 (centres unmarked) [Example 114, (3-fluorobicyclo[1.1.1]-pentan-1-yl)(3-phenoxypyrrolidin-1-yl)methanone] | > 16700 nM and 8900 nM |  |
| COC(=O)C12CC(C(=O)N[C@@H](C)c3cc(F)cc(F)c3)(C1)C2 [Example 115, methyl (S)-3-((1-(3,5-difluorophenyl)ethyl)-carbamoyl)bicyclo[1.1.1]-pentane-1-carboxylate] |  | > 50000 |
| N#CC12CC(C(=O)N3CCC(Oc4ccccc4)C3)(C1)C2 (centres unmarked) [Example 116, 3-(3-phenoxypyrrolidine-1-carbonyl)bicyclo[1.1.1]-pentane-1-carbonitrile] |  | > 50000 |
| Cc1cccc(C2CCCN2C(=O)C23CC(NC(=O)c4ccccc4)(C2)C3)c1 (centres unmarked) [Example 117, N-(3-(2-(m-tolyl)pyrrolidine-1-carbonyl)bicyclo[1.1.1]-pentan-1-yl)benzamide] |  | > 50000 |
| CCC(=O)NC12CC(C(=O)N3CCCC3c3cccc(C)c3)(C1)C2 (centres unmarked) [Example 118, N-(3-(2-(m-tolyl)pyrrolidine-1-carbonyl)bicyclo[1.1.1]-pentan-1-yl)propionamide] |  | > 50000 |
| CC(=O)NC12CC(C(=O)N3CCCC3c3cccc(C)c3)(C1)C2 (centres unmarked) [Example 119, N-(3-(2-(m-tolyl)pyrrolidine-1-carbonyl)bicyclo[1.1.1]-pentan-1-yl)acetamide] |  | > 50000 |
| Cc1cccc(C2CCCN2C(=O)C23CC(O)(C2)C3)c1 (centres unmarked) [Example 120, (3-hydroxybicyclo[1.1.1]-pentan-1-yl)(2-(m-tolyl)-pyrrolidin-1-yl)methanone] |  | > 50000 |
| COC(=O)C12CC(C(=O)NCc3cc(F)cc(F)c3)(C1)C2 [Example 121, methyl 3-((3,5-difluoro-benzyl)carbamoyl)-bicyclo[1.1.1]pentane-1-carboxylate] |  | > 50000 |
| CCOC12CC(C(=O)N3CCCC3c3cccc(C)c3)(C1)C2 (centres unmarked) [Example 122, (3-ethoxybicyclo[1.1.1]-pentan-1-yl)(2-(m-tolyl)-pyrrolidin-1-yl)methanone] | 998 nM |  |
| N#Cc1cncn1CC12CC(C(=O)N3N=CCC3c3cc(F)cc(F)c3)(C1)C2 (centres unmarked) [Example 123, 1-((3-(5-(3,5-difluorophenyl)-4,5-dihydro-1H-pyrazole-1-carbonyl)bicyclo[1.1.1]-pentan-1-yl)methyl)-1H-imidazole-5-carbonitrile] | 501 nM |  |
| O=C(N1N=CCC1c1cc(F)cc(F)c1)C12CC(CN3C(=O)C4(CC4)c4ccccc43)(C1)C2 (centres unmarked) [Example 125, 1′-((3-(5-(3,5-difluorophenyl)-4,5-dihydro-1H-pyrazole-1-carbonyl)-bicyclo[1.1.1]pentan-1-yl)methyl)-spiro[cyclopropane-1,3′-indolin]-2′-one] | 2800 nM |  |
| COCc1cn(CC23CC(C(=O)N4N=CCC4c4cc(F)cc(F)c4)(C2)C3)nn1 (centres unmarked) [Example 149, (5-(3,5-difluorophenyl)-4,5-dihydro-1H-pyrazol-1-yl)(3-((4-(methoxymethyl)-1H-1,2,3-triazol-1-yl)methyl)-bicyclo[1.1.1]pentan-1-yl)methanone] | 3930 nM |  |
| O=C(N1N=CCC1c1cc(F)cc(F)c1)C12CC(Cn3cc(CO)nn3)(C1)C2 (centres unmarked) [Example 150, (5-(3,5-difluorophenyl)-4,5-dihydro-1H-pyrazol-1-yl)(3-((4-(hydroxymethyl)-1H-1,2,3-triazol-1-yl)methyl)-bicyclo[1.1.1]pentan-1-yl)methanone] | 5460 nM |  |
| O=C(N1N=CCC1c1cc(F)cc(F)c1)C12CC(CN3CC(c4ccccc4)C3)(C1)C2 (centres unmarked) [Example 154, (5-(3,5-difluorophenyl)-4,5-dihydro-1H-pyrazol-1-yl)(3-((3-phenylazetidin-1-yl)-methyl)bicyclo[1.1.1]pentan-1-yl)methanone] | 4860 nM |  |
| N#Cc1ccc2c(cnn2CC23CC(C(=O)N4N=CCC4c4cc(F)cc(F)c4)(C2)C3)n1 (centres unmarked) [Example 179] | 9.6 nM |  |
| N#Cc1ccc2nn(CC34CC(C(=O)N5N=CCC5c5cc(F)cc(F)c5)(C3)C4)cc2n1 (centres unmarked) [Example 180, 2-((3-(5-(3,5-difluorophenyl)-4,5-dihydro-1H-pyrazole-1-carbonyl)bicyclo[1.1.1]-pentan-1-yl)methyl)-2H-pyrazolo[4,3-b]pyridine-5-carbonitrile] | 392 nM |  |

— patent publication US20250214942A1, “INHIBITORS OF RECEPTOR INTERACTING PROTEIN KINASE I FOR THE TREATMENT OF DISEASE” (Board of Regents, The University of Texas System, priority 2019, published 2025)
